Experimental data taken from US20240075088A1, “BIOACTIVE EXTRACTION METHOD” (Performance Labs Pte. Ltd., priority 2022, published 2024).

Test: DPPH radicals scavenging capacity assay
Format: biochemical
Method: DPPH radicals scavenging capacity assay: The ability of the plant extract to scavenge DPPH free radicals was assessed by using the method described by Takao et al. (Takao et al., 1994).
The stock solution of the plant extract was prepared in methanol to achieve the concentration of 2000 μg/ml. Further, two-fold dilutions were made to obtain concentrations of 1000, 500, 250, 125, 62.5, 31.25, 15.62 μg/ml. Diluted solutions of extract (2 ml each) were mixed with 2 ml of DPPH methanol solution (80 μg/ml). After 30 min in darkness at room temperature, the absorbance was read in a spectrophotometer at 517 nm. The control samples consisted of 2 ml of methanol added to 2 ml of DPPH solution. Caffeoylquinic acid and ascorbic acid was used as a positive control. The experiment was performed in triplicate. Scavenging activity is expressed as the inhibition percentage calculated using the following equation: Scavenging activity (%)=100×[Acontrol−Asample)/Acontrol)], where Acontrol is the absorbance of the control and Asample is the absorbance of the extract.
It was obtained from the graph of scavenging activity (%) versus concentration of samples. Low IC50 value indicates strong ability of the extract to act as DPPH scavenger.
To evaluate the antioxidant activity of different fractions, an assay method based on the reduction of DPPH was performed.

| DPPH antioxidant assay IC50 (concentration at which 50% of DPPH radicals were scavenged, DPPH methanol solution 80 μg/ml, 30 min in darkness, absorbance 517 nm, triplicate) | SMILES | antioxidant activity (DPPH), conclusion in words (inferred from comparison of the 20% and 70% ethanol fractions) |
| --- | --- | --- |
| 59.4 µg/mL | O=C1O[C@H]([C@@H](O)CO)C(O)=C1O [Ascorbic Acid, ascorbic acid] | – |
| – | Cn1c(=O)c2c(ncn2C)n(C)c1=O [caffeine] | did not contribute to antioxidant activity |
